Experimental data taken from patent publication US8399493B2, “Pyridinone derivatives and their use as positive allosteric modulators of mGluR2-receptors” (Janssen Pharmaceuticals, Inc., priority 2004, dated 2013).
Where a name gives a salt, the structure may show the parent alone.

Row | SMILES | melting point [°C]
1 | C[Si](C)(C)c1ccc(-c2ccc(=O)n(Cc3ccccc3)c2)cc1 | 132
2 | Cl.Nc1ccc(-c2ccc(=O)n(Cc3ccc(Cl)cc3F)c2)cc1 | 266
3 | COc1ccc(-c2ccc(=O)n(Cc3ccc(OC)nc3)c2)cc1 (as salt: HCl) [4-46] | 126
4 | Cc1ccc(-c2ccc(=O)n(Cc3ccccc3)c2)cc1 [1-03] | 110
5 | CCc1ccc(-c2ccc(=O)n(Cc3ccccc3)c2)cc1 [1-04] | 80
6 | CC(C)(C)c1ccc(-c2ccc(=O)n(Cc3ccccc3)c2)cc1 [1-05] | 145
7 | Cc1ccc(-c2ccc(=O)n(Cc3ccccc3)c2)cc1C [1-06] | 118
8 | O=c1ccc(-c2cc(F)cc(F)c2)cn1Cc1ccccc1 [1-09] | 98
9 | O=c1ccc(-c2cccc(Cl)c2)cn1Cc1ccccc1 [1-10] | 120
10 | O=c1ccc(-c2ccc(Cl)c(Cl)c2)cn1Cc1ccccc1 [1-12] | 134
11 | O=c1ccc(-c2ccc(O)cc2)cn1Cc1ccccc1 [1-13] | 202
12 | CCCOc1ccc(-c2ccc(=O)n(Cc3ccccc3)c2)cc1 [1-17] | 88
13 | CC(C)COc1ccc(-c2ccc(=O)n(Cc3ccccc3)c2)cc1 [1-18] | 110
14 | COc1ccc(-c2ccc(=O)n(Cc3ccccc3)c2)cc1OC [1-19] | 120
15 | O=c1ccc(-c2ccc(OC(F)(F)F)cc2)cn1Cc1ccccc1 [1-20] | 115
16 | CC(=O)c1ccc(-c2ccc(=O)n(Cc3ccccc3)c2)cc1 [1-23] | 118
17 | CCOC(=O)c1ccc(-c2ccc(=O)n(Cc3ccccc3)c2)cc1 [1-24] | 115
18 | N#Cc1ccc(-c2ccc(=O)n(Cc3ccccc3)c2)cc1 [1-25] | 131
19 | CN(C)c1ccc(-c2ccc(=O)n(Cc3ccccc3)c2)cc1 [1-26] | 153
20 | O=c1ccc(-c2cccc([N+](=O)[O-])c2)cn1Cc1ccccc1 [1-27] | 149
21 | COc1ccc(-c2ccc(=O)n(Cc3ccccc3)c2)cn1 [1-29] | 180 to 181

Row | SMILES | melting point [°C]
22 | O=c1ccc(-c2ccc3[nH]ccc3c2)cn1Cc1ccccc1 [1-30] | 93
23 | O=c1ccc(-c2ccc3ccccc3c2)cn1Cc1ccccc1 [1-32] | 114
24 | O=c1ccc(C2CCCCC2)cn1Cc1ccc(Cl)cc1 [2-01, 1-(4-Chlorobenzyl)-5-cyclohexylpyridin-2(1H)-one] | 72
25 | Cc1ccc(-c2ccc(=O)n(Cc3ccc(Cl)cc3)c2)cc1 [2-03] | 126 to 128
26 | CC(C)Cc1ccc(-c2ccc(=O)n(Cc3ccc(Cl)cc3)c2)cc1 [2-04] | 115
27 | CCC(C)c1ccc(-c2ccc(=O)n(Cc3ccc(Cl)cc3)c2)cc1 (stereo not shown) [2-05] | 73
28 | C=Cc1ccc(-c2ccc(=O)n(Cc3ccc(Cl)cc3)c2)cc1 [2-06] | 125
29 | Cc1ccc(-c2ccc(=O)n(Cc3ccc(Cl)cc3)c2)cc1F [2-10] | 109 to 112
30 | COc1ccc(-c2ccc(=O)n(Cc3ccc(Cl)cc3)c2)c(F)c1 [2-11] | 89
31 | O=c1ccc(-c2ccc(O)cc2)cn1Cc1ccc(Cl)cc1 [2-13] | 202
32 | O=c1ccc(-c2ccc(CO)cc2)cn1Cc1ccc(Cl)cc1 [2-14] | 155
33 | CC(C)(O)c1ccc(-c2ccc(=O)n(Cc3ccc(Cl)cc3)c2)cc1 [2-15, 1-(4-Chlorobenzyl)-5-(4-(2-hydroxypropan-2-yl)phenyl)pyridin-2(1H)-one] | 157
34 | O=c1ccc(-c2ccc(CCCO)cc2)cn1Cc1ccc(Cl)cc1 [2-16, 1-(4-Chlorobenzyl)-5-(4-(3-hydroxypropyl)phenyl)pyridin-2(1H)-one] | 165
35 | CCOc1ccccc1-c1ccc(=O)n(Cc2ccc(Cl)cc2)c1 [2-20] | 120 to 121
36 | CC(C)Oc1ccc(-c2ccc(=O)n(Cc3ccc(Cl)cc3)c2)cc1 [2-21] | 118
37 | COCc1ccc(-c2ccc(=O)n(Cc3ccc(Cl)cc3)c2)cc1 [2-24] | 109
38 | CCOCc1ccc(-c2ccc(=O)n(Cc3ccc(Cl)cc3)c2)cc1 [2-25, 1-(4-Chlorobenzyl)-5-(4-(ethoxymethyl)phenyl)pyridin-2(1H)-one] | 109
39 | CC(C)COCc1ccc(-c2ccc(=O)n(Cc3ccc(Cl)cc3)c2)cc1 [2-26] | 91
40 | O=c1ccc(-c2ccc(COCc3ccccc3)cc2)cn1Cc1ccc(Cl)cc1 [2-27] | 101
41 | COCCOCc1ccc(-c2ccc(=O)n(Cc3ccc(Cl)cc3)c2)cc1 [2-28] | 79
42 | CC(=O)c1ccc(-c2ccc(=O)n(Cc3ccc(Cl)cc3)c2)cc1 [2-30] | 162

Row | SMILES | melting point [°C]
43 | O=C(O)Cc1ccc(-c2ccc(=O)n(Cc3ccc(Cl)cc3)c2)cc1 [2-31] | 180
44 | COC(=O)c1ccc(-c2ccc(=O)n(Cc3ccc(Cl)cc3)c2)cc1 [2-33] | 175
45 | COC(=O)CCc1ccc(-c2ccc(=O)n(Cc3ccc(Cl)cc3)c2)cc1 [2-36] | 105
46 | COc1ccc(-c2ccc(=O)n(Cc3ccc(Cl)cc3)c2)cc1N [2-37] | 175
47 | COCCNc1ccc(-c2ccc(=O)n(Cc3ccc(Cl)cc3)c2)cc1 [2-40] | 106
48 | O=c1ccc(-c2ccc(N3CCOCC3)cc2)cn1Cc1ccc(Cl)cc1 [2-41] | 126
49 | CC(=O)NCCOCc1ccc(-c2ccc(=O)n(Cc3ccc(Cl)cc3)c2)cc1 [2-42, N-(2-(4-(1-(4-Chlorobenzyl)-6-oxo-1,6-dihydropyridin-3-yl)benzyloxy)ethyl)acetamide] | 152
50 | CN(C)C(=O)c1ccc(-c2ccc(=O)n(Cc3ccc(Cl)cc3)c2)cc1 [2-43] | 176
51 | CNC(=O)Cc1ccc(-c2ccc(=O)n(Cc3ccc(Cl)cc3)c2)cc1 [2-44, 2-(4-(1-(4-Chlorobenzyl)-1,6-dihydro-6-oxopyridin-3-yl)phenyl)-N-methylacetamide] | 183
52 | CN(C)C(=O)Cc1ccc(-c2ccc(=O)n(Cc3ccc(Cl)cc3)c2)cc1 [2-45] | 161
53 | CNC(=O)CCc1ccc(-c2ccc(=O)n(Cc3ccc(Cl)cc3)c2)cc1 [2-46] | 197
54 | CN(C)C(=O)CCc1ccc(-c2ccc(=O)n(Cc3ccc(Cl)cc3)c2)cc1 [2-47] | 104
55 | CN(C)c1ccc(-c2ccc(=O)n(Cc3ccc(Cl)cc3)c2)cc1 [2-48] | 155
56 | O=c1ccc(-c2ccc(Cc3nn[nH]n3)cc2)cn1Cc1ccc(Cl)cc1 [2-51, 5-(4-((2H-Tetrazol-5-yl)methyl)phenyl)-1-(4-chlorobenzyl)pyridin-2(1H)-one] | 231
57 | CSc1ccc(-c2ccc(=O)n(Cc3ccc(Cl)cc3)c2)cc1 [2-52] | 132
58 | CCSc1ccc(-c2ccc(=O)n(Cc3ccc(Cl)cc3)c2)cc1 [2-53] | 109
59 | CS(=O)(=O)c1ccc(-c2ccc(=O)n(Cc3ccc(Cl)cc3)c2)cc1 [2-54] | 199 to 200
60 | COc1ccc(-c2ccc(=O)n(Cc3ccc(Cl)cc3)c2)cc1NS(C)(=O)=O [2-56, N-(5-(1-(4-Chlorobenzyl)-6-oxo-1,6-dihydropyridin-3-yl)-2-methoxyphenyl)methanesulfonamide] | 151
61 | O=c1ccc(-c2cnn(Cc3ccccc3)c2)cn1Cc1ccc(Cl)cc1 [2-58] | 140 to 144
